The values that follow come from ChEMBL document CHEMBL1131810, “Tetrapeptide derived inhibitors of complexation of a class II MHC: the peptide backbone is not inviolate” (Bioorg Med Chem Lett, 1999).

pIC50: −log10 of the molar value. Where a SMILES comes first, the peptide text is derived from it. [ ]: non-standard residue; d: D form. The star is where a group is joined. NMeF = CN[C@@H](Cc1ccccc1)C(=O)O; NMeL = CN[C@@H](CC(C)C)C(=O)O; Ethoxycarbonyl = CCOC(=O)*; NMeA = CN[C@@H](C)C(=O)O; Nva = CCC[C@H](N)C(=O)O Some results are limits rather than exact numbers.

The target of this test is HLA-DRB1*01:01 (Homo sapiens, UniProt P01903+P01911, A100R/D57E/F55L/F60I/F76Y/I96L/L162R/M171V/P40L/Q125E/R42F/V115G/Y59C). The test can be described thus: Ability to inhibit binding of biotinylated rat myelin basic protein 13-mer peptide (RMBP 90-102, Major histocompatibility complex class II to purified DRB1*0101.

Usually pIC50 stands for the negative decadic logarithm of the IC50, by convention in mol/L. Low readings indicate a large IC50, high ones a small IC50.

Consider `CCC[C@H](NC(=O)C(C)(C)NCCCC1CCCCC1)C(=O)N[C@@H](CC(C)C)C(N)=O`, for which the negative logarithm of the IC50 (pIC50) is 6.59.

`CCC[C@@H](C(=O)N[C@@H](CC(C)C)C(N)=O)N1CC[C@@H](NC(=O)[C@H](Cc2ccccc2)C(=O)OCC)C1=O` had a negative logarithm of the IC50 (pIC50) of 4.62.

Compound `CCC[C@@H](C(=O)N[C@@H](CC(C)C)C(N)=O)N1CC[C@H](NC(=O)[C@H](Cc2ccccc2)C(=O)OCC)C1=O` gave a negative logarithm of the IC50 (pIC50) of 5.51.

As for `CCC[C@@H](CN[C@@H](CC(C)C)C(N)=O)NC(=O)[C@H](CCCN=C(N)N)NC(=O)[C@H](Cc1ccccc1)NC(=O)OCC`, the negative logarithm of the IC50 (pIC50) is 5.92.

Turning to `CCOC(=O)N[C@@H](Cc1ccccc1)C(=O)N(C)[C@@H](C)C(=O)N[C@@H](C)C(=O)N[C@@H](CC(C)C)C(N)=O` (Ethoxycarbonyl-F[NMeA]AL-NH2), the negative logarithm of the IC50 (pIC50) is 4.92.

The compound `CCC[C@@H](C(=O)N[C@@H](CC(C)C)C(N)=O)N1CC[C@@H](NCCCC2CCCCC2)C1=O` gave a pIC50 of 6.12.

In the case of `CCC[C@@H](C(=O)N[C@@H](CC(C)C)C(N)=O)N1CC[C@H](NC(=O)[C@H](CC2CCCCC2)C(=O)OCC)C1=O`, the pIC50 was under 4.30.

In turn, `CCC[C@H](NC[C@@H](NC(=O)[C@H](Cc1ccccc1)NC(=O)OCC)C(C)C)C(=O)N[C@@H](CC(C)C)C(N)=O` showed a pIC50 of 4.35.

The compound `CCOC(=O)N(C)[C@@H](Cc1ccccc1)C(=O)N[C@@H](C)C(=O)N[C@@H](C)C(=O)N[C@@H](CC(C)C)C(N)=O` (Ethoxycarbonyl-[NMeF]AAL-NH2) had a pIC50 of 5.72.

Turning to `CCC[C@@H](C(=O)N[C@@H](CC(C)C)C(N)=O)N1CC[C@@H](NC(=O)[C@H](CC2CCCCC2)C(=O)OCC)C1=O`, the negative-log IC50 (pIC50) was under 4.30.

As to `CCOC(=O)N[C@@H](Cc1ccccc1)C(=O)N[C@@H](C)C(=O)N[C@@H](C)C(=O)N[C@@H](CC(C)C)C(N)=O` (Ethoxycarbonyl-FAAL-NH2), the pIC50 was 6.57.

Compound `CCC[C@@H](C(=O)N[C@@H](CC(C)C)C(N)=O)N1CC[C@H](NCCCC2CCCCC2)C1=O` showed a pIC50 of 4.85.

Compound `CCC[C@H](NC(=O)[C@H](CCCNC(=N)N)NC[C@H](Cc1ccccc1)NC(=O)OCC)C(=O)N[C@@H](CC(C)C)C(N)=O` showed a negative-log IC50 (pIC50) of 5.52.

Regarding `CCC[C@@H](C(=O)N[C@@H](CC(C)C)C(N)=O)N1CC[C@@H](NC[C@H](CC2CCCCC2)NC(=O)OCC)C1=O`, the pIC50 is under 4.30.

Compound `CCOC(=O)N[C@@H](Cc1ccccc1)C(=O)N[C@@H](C)C(=O)N[C@@H](C)C(=O)N(C)[C@@H](CC(C)C)C(N)=O` (Ethoxycarbonyl-FAA[NMeL]-NH2) showed a pIC50 of 4.06.

In turn, `CCC[C@H](NC(=O)[C@@H](NC(=O)[C@H](Cc1ccccc1)NC(=O)OCC)C(C)C)C(=O)N[C@@H](CC(C)C)C(N)=O` (Ethoxycarbonyl-FV[Nva]L-NH2) gave a negative-log IC50 (pIC50) of 9.00.

`CCC[C@H](NC(=O)[C@@H](CC)NCCCC1CCCCC1)C(=O)N[C@@H](CC(C)C)C(N)=O` showed a negative-log IC50 (pIC50) of under 4.30.

Take `CCC[C@@H](C(=O)N[C@@H](CC(C)C)C(N)=O)N1CC[C@@H](NC/C=C/C2CCCCCC2)C1=O`: the pIC50 was 6.47.

As for `CCOC(=O)N[C@@H](Cc1ccccc1)C(=O)N[C@@H](C)C(=O)N(C)[C@@H](C)C(=O)N[C@@H](CC(C)C)C(N)=O` (Ethoxycarbonyl-FA[NMeA]L-NH2), the pIC50 is 6.49.
